According to patent publication US20050250110A1, “PNA conjugate for treating chronic myeloid leukemia (CML)” (priority 2001, published 2005):

Tests used:
[1] = tested on: tumor cell line K562 (Ph-positive); experiment: Growth behavior of K562 cells following administration of PNA conjugates (cell number, Coulter Counter); format: cell-based
tumor cell line K562 = experiment: Apoptosis behavior of K562 cells: cell number after 24 h treatment and subsequent PNA removal; format: cell-based; conditions: 100 nM for 24 h
Method: The cell number change is shown on a time axis. The treatment was carried out for 24 h and by means of subsequent PNA removal. Final concentration: 100 nM. Dark blue line: AS conjugate; magenta: random sequence conjugate; yellow: AS-non-ligated; blue: untreated control.
The question of the apoptosis behavior following the administration of a conjugate according to the invention (corresponding to Example 3 and FIG. 6) was studied as such. The incubation period was 24 hours with 5% CO2 at 37° C. in an incubator. Having removed the medium mixture and carrying out a wash step twice using fresh RPMI-1640, the same volume of fresh medium was added by pipetting and further cultured. The medium was changed every 72 hours. The cultures were treated as before: As in the previous experiment, a break-down of the untreated culture was again found after about 72 hours. […] The relative stability up to 144 hours following the removal of antisense NLS-PNA was striking in the culture treated with antisense NLS-PNA.

## Transport peptide (penetratin)-disulfide bridge-NLS—KK(FITC)—PNA^BCR/Abl (sequence of PNA^BCR/Abl: H2N-TGCGTGTGGATGATTCTTTGTTTTAA-COOH) [antisense NLS penetratin]
[1]; 100 nM, in contrast to the controls
  phenotype of the treated cells: vital phenotype
[1]; final concentration 100 nM, treatment throughout the experiment
  stabilization of the cell number, time after the treatment: 24 h
[1]; final concentration 100 nM, treatment throughout the experiment, compared with untreated control
  growth behavior (cell number change on a time axis): stagnation of the cell proliferation
Tumor cell line K562; then PNA removal
  relative stability of the culture, time following PNA removal: up to 144 hours
  time of the maximum cell number following PNA removal: 120 h
Tumor cell line K562; then PNA removal and further culture, medium changed every 72 hours
  cell growth / cell number after PNA removal: minor increase in the cell number
